Test results reported in patent US10344025B2, “GLS1 inhibitors for treating disease” (Board of Regents, The University of Texas System, priority 2014, dated 2019).
Where two headings read alike, the source gives them in different places.

Columns and labels:
[1] = test system: A549 cells; assay: Proliferation Assay (A549 viability, Cell Titer Fluor, 72 hours); format: cell-based
Method in brief: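 Cell Titer Fluor fluorescence after 72 h compound treatment (0.5% DMSO, 37 °C, 5% CO2) of A549 cells plated 24 h earlier at 1000/well. Four-parameter logistic fitting gave IC50.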

[2] = target: purified recombinant human GAC (GLS1) (Homo sapiens (Human), UniProt O94925); assay: GLS1 Enzymatic Activity Assay (dual-coupled enzymatic assay, resorufin/Amplex UltraRed readout); format: biochemical;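 further: glutamate from GAC coupled via glutamate oxidase and peroxidase to resorufin, read as fluorescence (ex 530, em 590 nm) kinetically or at 20 min, four-parameter logistic IC50 fit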
purified recombinant human GAC (GLS1), sequence (O94925 other isoform, or with tags, fused parts or gaps): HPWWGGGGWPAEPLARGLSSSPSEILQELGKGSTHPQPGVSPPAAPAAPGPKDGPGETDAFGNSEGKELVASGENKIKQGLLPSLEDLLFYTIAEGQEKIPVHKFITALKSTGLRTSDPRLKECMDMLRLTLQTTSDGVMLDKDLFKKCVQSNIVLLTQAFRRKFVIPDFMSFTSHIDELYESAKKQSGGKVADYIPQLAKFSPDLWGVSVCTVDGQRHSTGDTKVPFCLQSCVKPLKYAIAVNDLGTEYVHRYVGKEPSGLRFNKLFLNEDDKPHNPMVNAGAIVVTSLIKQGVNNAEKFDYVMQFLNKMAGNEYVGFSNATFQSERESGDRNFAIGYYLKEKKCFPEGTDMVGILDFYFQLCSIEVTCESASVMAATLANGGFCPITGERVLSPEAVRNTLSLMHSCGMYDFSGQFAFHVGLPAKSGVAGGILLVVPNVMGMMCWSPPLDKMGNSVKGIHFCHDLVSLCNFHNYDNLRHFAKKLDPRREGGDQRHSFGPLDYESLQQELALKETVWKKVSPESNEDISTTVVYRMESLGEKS

Compound | EC50 ([1]; Homo sapiens, A549, 72 h) [nM] | IC50 [2] [nM] | EC50 [1] [nM] | EC50 ([1]; Homo sapiens) [nM]
CNC(=O)c1cn(CCC(F)Cn2cc(C(=O)NCc3cccc(C#N)c3)nn2)nn1 (centres unmarked) [Example 182, 1-[4-(4-{[(3-cyanophenyl)methyl]carbamoyl}-1H-1,2,3-triazol-1-yl)-3-fluorobutyl]-N-methyl-1H-1,2,3-triazole-4-carboxamide] | > 5000 | 100 to 500 |  | 
O=C(NCc1cc(C(F)(F)F)ccn1)c1cn(CCCCn2cc(C(=O)NC[C@@H]3CC4CCC3O4)nn2)nn1 (stereo partly drawn) [Example 103, 1-[4-(4-{[(2S)-7-oxabicyclo[2.2.1]heptan-2-ylmethyl]carbamoyl}-1H-1,2,3-triazol-1-yl)butyl]-N-{[4-(trifluoromethyl)pyridin-2-yl]methyl}-1H-1,2,3-triazole-4-carboxamide] | 500 to 5000 | 100 to 500 |  | 
Cc1ccc(CC(=O)Nc2cn(CCCCn3cc(C(=O)NCc4cc(OC(F)(F)F)ccc4F)nn3)nn2)cn1 [Example 335, N-{[2-fluoro-5-(trifluoromethoxy)phenyl]methyl}-1-(4-{4-[2-(6-methylpyridin-3-yl)acetamido]-1H-1,2,3-triazol-1-yl}butyl)-1H-1,2,3-triazole-4-carboxamide] | < 100 | < 100 |  | 
O=C(NCc1cncc(C(F)(F)F)c1)c1cn(CCCCn2cc(C(=O)NCC3CCCC3)nn2)nn1 [Example 84] | 100 to 500 | 100 to 500 |  | 
CNC(=O)c1cn(CCCCc2ccc(NC(=O)Cc3cccc(C4CCOCC4)c3)nn2)nn1 [Example 217, N-methyl-1-(4-(6-(2-(3-(tetrahydro-2H-pyran-4-yl)phenyl)acetamido)pyridazin-3-yl)butyl)-1H-1,2,3-triazole-4-carboxamide] | 100 to 500 | < 100 |  | 
O=C(NCc1cccc(OC(F)(F)F)c1)c1cn(CCCCn2cc(C(=O)NCc3cc(C4CC4)ccn3)nn2)nn1 [Example 106, N-[(4-cyclopropylpyridin-2-yl)methyl]-1-{4-[4-({[3-(trifluoromethoxy)phenyl]methyl}carbamoyl)-1H-1,2,3-triazol-1-yl]butyl}-1H-1,2,3-triazole-4-carboxamide] | < 100 | < 100 |  | 
O=C(NCc1cccc(OC(F)(F)F)c1)c1cn(CCC(F)Cn2cc(C(=O)NCc3cc(C(F)(F)F)ccn3)nn2)nn1 (centres unmarked) [Example 428, 1-{2-fluoro-4-[4-({[3-(trifluoromethoxy)phenyl]methyl}carbamoyl)-1H-1,2,3-triazol-1-yl]butyl}-N-{[4-(trifluoromethyl)pyridin-2-yl]methyl}-1H-1,2,3-triazole-4-carboxamide] | < 100 | < 100 |  | 
O=C(Cc1cccc(OC(F)(F)F)c1)Nc1nnc(CCCCn2cc(C(=O)NCC3CC3)nn2)s1 [Example 11, N-(cyclopropylmethyl)-1-[4-(5-{2-[3-(trifluoromethoxy)phenyl]acetamido}-1,3,4-thiadiazol-2-yl)butyl]-1H-1,2,3-triazole-4-carboxamide] | 100 to 500 | < 100 |  | 
O=C(Cc1ccccn1)Nc1nnc(CC[C@@H](F)Cn2cc(C(=O)NCc3cc(C(F)(F)F)ccn3)nn2)s1 [Example 250, (R)-1-(2-fluoro-4-(5-(2-(pyridin-2-yl)acetamido)-1,3,4-thiadiazol-2-yl)butyl)-N-((4-(trifluoromethyl)pyridin-2-yl)methyl)-1H-1,2,3-triazole-4-carboxamide] |  | < 100 |  | < 100
O=C(CN1CC(F)C1)Nc1cn(CC(F)CCn2cc(C(=O)NCc3cc(OC(F)(F)F)ccc3F)nn2)nn1 (centres unmarked) [Example 372, 1-(3-fluoro-4-(4-(2-(3-fluoroazetidin-1-yl)acetamido)-1H-1,2,3-triazol-1-yl)butyl)-N-(2-fluoro-5-(trifluoromethoxy)benzyl)-1H-1,2,3-triazole-4-carboxamide] |  | < 100 |  | 100 to 500
O=C(NCc1cn2ccsc2n1)c1cn(CCC(F)Cn2cc(C(=O)NCc3cc(C(F)(F)F)ccn3)nn2)nn1 (centres unmarked) [Example 155, 1-{3-fluoro-4-[4-({[4-(trifluoromethyl)pyridin-2-yl]methyl}carbamoyl)-1H-1,2,3-triazol-1-yl]butyl}-N-{imidazo[2,1-b][1,3]thiazol-6-ylmethyl}-1H-1,2,3-triazole-4-carboxamide] | 500 to 5000 | < 100 |  | 
CNC(=O)c1cn(C[C@@H](F)CCc2nnc(NC(=O)Cc3cccc(OC(F)(F)F)c3)s2)nn1 [Example 239, (S)-1-(2-fluoro-4-(5-(2-(3-(trifluoromethoxy)phenyl)acetamido)-1,3,4-thiadiazol-2-yl)butyl)-N-methyl-1H-1,2,3-triazole-4-carboxamide] |  | < 100 | 100 to 500 | 
CC(C)(C)OC(=O)NCc1cccc(CNC(=O)c2cn(CCCCn3cc(C(=O)NCc4cc(C(F)(F)F)ccn4)nn3)nn2)c1 [Example 110, tert-butyl N-[(3-{[(1-{4-[4-({[4-(trifluoromethyl)pyridin-2-yl]methyl}carbamoyl)-1H-1,2,3-triazol-1-yl]butyl}-1H-1,2,3-triazol-4-yl)formamido]methyl}phenyl)methyl]carbamate] | < 100 | < 100 |  | 

Now from value to compound, other results behind:

EC50 ([1]; Homo sapiens, A549, 72 h) [nM] | IC50 [2] [nM] | EC50 [1] [nM] | Compound | EC50 ([1]; Homo sapiens) [nM]
500 to 5000 | 500 to 5000 |  | O=C(NCC1CCOCC1)c1cn(CCC(F)Cn2cc(C(=O)NCc3cc(C(F)(F)F)ccn3)nn2)nn1 (centres unmarked) [Example 457, 1-(2-fluoro-4-{4-[(oxan-4-ylmethyl)carbamoyl]-1H-1,2,3-triazol-1-yl}butyl)-N-{[4-(trifluoromethyl)pyridin-2-yl]methyl}-1H-1,2,3-triazole-4-carboxamide] | 
< 100 | < 100 |  | O=C(NCc1cc(C(F)(F)F)ccn1)c1cn(CC(F)CCc2nnc(C(=O)NCc3ccc(C(F)(F)F)cn3)s2)nn1 (centres unmarked) [Example 489, 5-{3-fluoro-4-[4-({[4-(trifluoromethyl)pyridin-2-yl]methyl}carbamoyl)-1H-1,2,3-triazol-1-yl]butyl}-N-{[5-(trifluoromethyl)pyridin-2-yl]methyl}-1,3,4-thiadiazole-2-carboxamide] | 
< 100 | < 100 |  | O=C(Cc1cccc(OC(F)(F)F)c1)Nc1nnc(CCC(F)Cn2cc(C(=O)NCc3cc(C(F)(F)F)ccn3)nn2)s1 (centres unmarked) [Example 495, 1-[2-fluoro-4-(5-{2-[3-(trifluoromethoxy)phenyl]acetamido}-1,3,4-thiadiazol-2-yl)butyl]-N-{[4-(trifluoromethyl)pyridin-2-yl]methyl}-1H-1,2,3-triazole-4-carboxamide] | 
< 100 | < 100 |  | O=C(Cc1nccs1)Nc1nnc(CCC(F)Cn2cc(C(=O)NCc3cc(OC(F)(F)F)ccc3F)nn2)s1 (centres unmarked) [Example 573, 1-(2-fluoro-4-(5-(2-(thiazol-2-yl)acetamido)-1,3,4-thiadiazol-2-yl)butyl)-N-(2-fluoro-5-(trifluoromethoxy)benzyl)-1H-1,2,3-triazole-4-carboxamide] | 
< 100 | < 100 |  | O=C(NCc1cc(C(F)(F)F)ccn1)c1cn(CCC(F)Cn2cc(C(=O)NCc3cc(C(F)(F)F)ccn3)nn2)nn1 (centres unmarked) [Example 470, 1-{2-fluoro-4-[4-({[4-(trifluoromethyl)pyridin-2-yl]methyl}carbamoyl)-1H-1,2,3-triazol-1-yl]butyl}-N-{[4-(trifluoromethyl)pyridin-2-yl]methyl}-1H-1,2,3-triazole-4-carboxamide] | 
500 to 5000 | 500 to 5000 |  | CNC(=O)c1nnc(CCC(F)Cn2cc(C(=O)NCc3ccccn3)nn2)s1 (centres unmarked) [Example 557, 5-(3-fluoro-4-{4-[(pyridin-2-ylmethyl)carbamoyl]-1H-1,2,3-triazol-1-yl}butyl)-N-methyl-1,3,4-thiadiazole-2-carboxamide] | 
